Assay results as given in article PMC10978029 (Virulence, 2024).
pKd: −log10 of the molar value.

Key:
STM0435 [1] = molecular target: T1, STM0435 (Salmonella enterica, UniProt Q8ZRC9); assay: SPR; assay type: binding
T1 sequence (Q8ZRC9 1-163): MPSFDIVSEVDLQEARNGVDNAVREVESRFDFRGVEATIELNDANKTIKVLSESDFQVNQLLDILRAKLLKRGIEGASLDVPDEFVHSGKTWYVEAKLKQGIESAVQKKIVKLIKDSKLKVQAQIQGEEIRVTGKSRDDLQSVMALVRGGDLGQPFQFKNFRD

STM0435 [2] = molecular target: STM0435 (Salmonella enterica, UniProt Q8ZRC9, R33H); assay: biochemical
STM0435 [3] = molecular target: STM0435 (Salmonella enterica, UniProt Q8ZRC9, D138H/R137H); assay: biochemical
STM0435 [4] = molecular target: STM0435 (Salmonella enterica, UniProt Q8ZRC9, D138H/R137H/R33H); assay: biochemical

Nc1nc2c(ncn2[C@@H]2O[C@@H]3CO[P@](=O)(O)O[C@H]4[C@@H](O)[C@H](n5cnc6c(=O)[nH]c(N)nc65)O[C@@H]4CO[P@](=O)(O)O[C@H]3[C@H]2O)c(=O)[nH]1 [c-di-GMP]
pKd (STM0435 [1]): 5.08
pKd (STM0435 [2]): 4.82
pKd (STM0435 [3]): 4.60
pKd (STM0435 [4]): 4.48
